Laboratory results: patent US20200399222A1, “PICOLINAMIDES AS FUNGICIDES” (Dow AgroSciences LLC, priority 2018, published 2020)
Like-named read-outs stand apart in the source and are kept apart here.

Columns and labels:
[1] = system: Zymoseptoria tritici; assay: Leaf blotch of wheat (SEPTTR) disease control on wheat seedlings; format: in vivo; details: High volume application, 100 ppm
Description: Example A: Evaluation of Fungicidal Activity: Leaf Blotch of Wheat (Zymoseptoria tritici; Bayer Code […]) Technical grades of materials were dissolved in acetone, which were then mixed with nine volumes of water containing 110 ppm Triton X-100. The fungicide solutions were applied onto wheat seedlings using an automated booth sprayer to run-off. All sprayed plants were allowed to air dry prior to further handling. All fungicides were evaluated using the aforementioned method for their activity vs. all target diseases, unless stated otherwise. Wheat leaf blotch and brown rust activity were also evaluated using track spray applications, in which case the fungicides were formulated as EC formulations, containing 0.1% Trycol 5941 in the spray solutions. Wheat plants (variety Yuma) were grown from seed in a greenhouse in 50% mineral soil/50% soil-less Metro mix until the first leaf was fully emerged, with 7-10 seedlings per pot. These plants were inoculated with an aqueous spore suspension of Zymoseptoria tritici either prior to or after fungicide treatments. After inoculation the plants were kept in 100% relative humidity (one day in a dark dew chamber followed by two to three days in a lighted dew chamber at 20° C.) to permit spores to germinate and infect the leaf. The plants were then transferred to a greenhouse set at 20° C. for disease to develop. When disease symptoms were fully expressed on the 1st leaves of untreated plants, infection levels were assessed on a scale of 0 to 100 percent disease severity. Percent disease control was calculated using the ratio of disease severity on treated plants relative to untreated plants.

[2] = system: Puccinia triticina; assay: Wheat brown rust (PUCCRT) disease control on wheat seedlings; format: in vivo; details: High volume application, 100 ppm
Description: Technical grades of materials were dissolved in acetone, which were then mixed with nine volumes of water containing 110 ppm Triton X-100. The fungicide solutions were applied onto wheat seedlings using an automated booth sprayer to run-off. All sprayed plants were allowed to air dry prior to further handling. All fungicides were evaluated using the aforementioned method for their activity vs. all target diseases, unless stated otherwise. Wheat leaf blotch and brown rust activity were also evaluated using track spray applications, in which case the fungicides were formulated as EC formulations, containing 0.1% Trycol 5941 in the spray solutions. Example B: Evaluation of Fungicidal Activity: Wheat Brown Rust (Puccinia triticina; Synonym: Puccinia recondita f. sp. tritici; Bayer Code PUCCRT) Wheat plants (variety Yuma) were grown from seed in a greenhouse in 50% mineral soil/50% soil-less Metro mix until the first leaf was fully emerged, with 7-10 seedlings per pot. These plants were inoculated with an aqueous spore suspension of Puccinia triticina either prior to or after fungicide treatments. After inoculation the plants were kept in a dark dew room at 22° C. with 100% relative humidity overnight to permit spores to germinate and infect the leaf. The plants were then transferred to a greenhouse set at 24° C. for disease to develop. Fungicide formulation, application and disease assessment followed the procedures as described in the Example A.

[3] = 24 h, 1 Day Protectant, read-out: SEPTTR disease control rating, 1DP
[4] = 72 h, 3 Day Curative, read-out: SEPTTR disease control rating, 3DC
[5] = 24 h, 1 Day Protectant, read-out: PUCCRT disease control rating, 1DP
[6] = 72 h, 3 Day Curative, read-out: PUCCRT disease control rating, 3DC

| Structure (SMILES) | pest or weed control at 100 ppm [1, 3] [%] | pest or weed control at 100 ppm [1, 4] [%] | pest or weed control at 100 ppm [2, 5] [%] | pest or weed control at 100 ppm [2, 6] [%] |
| --- | --- | --- | --- | --- |
| COc1ccnc(C(=O)N[C@H](C(=O)O[C@H](C)[C@H](C)c2ccc(F)cc2)C(C)C)c1O [Example 146] | > 80 | < 80 | > 80 | < 80 |
| COc1ccnc(C(=O)N[C@@H](C)C(=O)O[C@H](C)[C@H](C)c2ccc(C)cc2C)c1O [Example 117] | < 80 | < 80 | < 80 | < 80 |
| COc1ccnc(C(=O)N[C@H](C)C(=O)O[C@@H](C)[C@H](C)c2ccc(F)cc2C)c1O [Example 149] | < 80 | < 80 | < 0 | < 0 |
| COc1ccnc(C(=O)N[C@@H](C)C(=O)O[C@H](C)[C@H](C)c2c(C)cc(F)cc2C)c1O [Example 169] | > 80 | > 80 | > 80 | > 80 |
| COc1ccnc(C(=O)N[C@@H](C)C(=O)O[C@H](C)[C@H](C)c2ccc(F)cc2C(F)(F)F)c1O [Example 162] | < 80 | < 80 | < 0 | < 0 |
| COc1ccnc(C(=S)N[C@@H](C)C(=O)O[C@@H](C)[C@@H](C)c2ccccc2C(F)(F)F)c1O [Example 267] | < 80 | < 80 | > 80 | < 80 |
| COc1ccnc(C(=O)N[C@@H](C)C(=O)O[C@H](C)[C@@H](C)c2ccccc2C)c1O [Example 135] | < 80 | < 80 | < 80 | < 80 |
| COc1ccnc(C(=O)N[C@@H](C)C(=O)O[C@@H](C)[C@@H](C)C2CCCC2)c1O [Example 160] | < 80 | < 80 | < 80 | > 80 |
| COc1ccnc(C(=O)N[C@@H](C)C(=O)O[C@@H](C)[C@H](C)c2ccc(F)cc2C)c1O [Example 129] | < 80 | < 80 | > 80 | < 80 |
| COc1ccnc(C(=O)N[C@H](C(=O)O[C@@H](C)[C@H](C)c2ccc(F)cc2C)C(C)C)c1O [Example 139] | < 80 | < 80 | < 80 | < 0 |
| COc1ccnc(C(=O)N[C@H](C)C(=O)O[C@@H](C)[C@@H](C)c2ccc(F)cc2C)c1O [Example 148] | > 80 | < 80 | > 80 | < 80 |
| COc1ccnc(C(=O)N[C@H](C(=O)O[C@@H](C)[C@H](C)c2ccccc2C)C(C)C)c1O [Example 140] | < 80 | < 80 | > 80 | < 80 |
| COc1ccnc(C(=O)N[C@@H](C)C(=O)O[C@H](C)[C@H](C)c2c(C)cccc2C)c1O [Example 168] | < 80 | > 80 | > 80 | > 80 |
| COc1ccnc(C(=O)N[C@H](C(=O)O[C@H](C)[C@@H](C)c2ccc(F)cc2C)C(C)C)c1O [Example 144] | < 80 | < 80 | < 0 | < 80 |
| COc1ccnc(C(=O)N[C@@H](C)C(=O)O[C@H](C)[C@@H](C)c2ccc(F)cc2C)c1O [Example 134] | < 80 | < 80 | < 80 | < 80 |
| COc1ccccc1[C@H](C)[C@H](C)OC(=O)[C@H](C)NC(=O)c1nccc(OC)c1O [Example 170] | < 80 | < 80 | > 80 | > 80 |

| Structure (SMILES) | pest or weed control at 100 ppm [1, 3] [%] | pest or weed control at 100 ppm [1, 4] [%] | pest or weed control at 100 ppm [2, 5] [%] | pest or weed control at 100 ppm [2, 6] [%] |
| --- | --- | --- | --- | --- |
| COc1ccnc(C(=O)N[C@H](C)C(=O)O[C@H](C)[C@H](C)c2ccc(F)cc2)c1O [Example 156] | < 80 | < 80 | < 0 | < 80 |
| COc1ccnc(C(=O)NCC(=O)O[C@H](C)[C@H](C)c2ccc(F)cc2)c1O [Example 126] | < 0 | < 80 | > 80 | < 80 |
| COc1ccnc(C(=O)N[C@@H](C)C(=O)O[C@@H](C)[C@@H](C)c2c(C)cc(F)cc2C)c1O [Example 167] | > 80 | > 80 | > 80 | > 80 |
| COc1ccc([C@H](C)[C@H](C)OC(=O)[C@H](C)NC(=O)c2nccc(OC)c2O)c(C)c1 [Example 132] | > 80 | < 80 | > 80 | > 80 |
| COc1ccnc(C(=S)N[C@@H](C)C(=O)O[C@@H](C)[C@@H](C)C2CCCC2)c1O [Example 269] | < 80 | < 80 | < 80 | > 80 |
| COc1ccnc(C(=O)N[C@@H](C)C(=O)O[C@@H](C)[C@@H](C)c2ccc(N(C)C)cc2)c1O [Example 176] | < 0 | < 80 | > 80 | < 80 |
| COc1ccnc(C(=O)NCC(=O)O[C@H](C)[C@H](C)c2ccc(F)cc2C)c1O [Example 123] | < 0 | < 80 | > 80 | < 80 |
| COc1ccnc(C(=O)N[C@@H](C)C(=O)O[C@@H](C)[C@@H](C)c2c(C)cccc2C)c1O [Example 166] | > 80 | > 80 | > 80 | > 80 |
| COc1ccnc(C(=O)N[C@@H](C)C(=O)O[C@@H](C)[C@H](C)c2ccccc2C)c1O [Example 130] | < 80 | < 80 | > 80 | > 80 |
| COc1ccnc(C(=O)N[C@@H](C)C(=O)O[C@@H](C)[C@@H](C)c2ccc(F)cc2)c1O [Example 131] | < 80 | < 80 | > 80 | > 80 |
| COc1ccc([C@@H](C)[C@@H](C)OC(=O)[C@@H](C)NC(=O)c2nccc(OC)c2O)c(C)c1 [Example 157] | < 80 | < 80 | < 80 | < 0 |
| COc1ccc([C@H](C)[C@H](C)OC(=O)CNC(=O)c2nccc(OC)c2O)c(C)c1 [Example 122] | < 80 | < 80 | > 80 | > 80 |
| COc1ccnc(C(=S)N[C@@H](C)C(=O)O[C@@H](C)[C@@H](C)c2ccc(F)cc2C(F)(F)F)c1O [Example 268] | < 80 | < 80 | > 80 | < 80 |
| COc1ccnc(C(=O)NCC(=O)O[C@@H](C)[C@H](C)c2ccc(F)cc2C)c1O [Example 119] | < 0 | < 80 | > 80 | < 80 |
| COc1ccnc(C(=O)NCC(=O)O[C@H](C)[C@@H](C)c2ccccc2C)c1O [Example 125] | < 0 | < 80 | < 80 | < 0 |
